Reference: ChEMBL document CHEMBL3425490, “Activity of lipo-cyclic γ-AApeptides against biofilms of Staphylococcus epidermidis and Pseudomonas aeruginosa” (Bioorg Med Chem Lett, 2015)
Converted amounts (≈) assume the structure as drawn. The source made the active and inactive calls. The rule behind the calls is not given here.

How the values were obtained:
[1] = test system: Staphylococcus epidermidis; experiment: Antibacterial activity against methicillin-resistant Staphylococcus epidermidis ATCC 35984 after 18 hrs by broth microdilution method; type: functional; details: RP62A
[2] = test system: Staphylococcus epidermidis; experiment: Inhibition of biofilm formation of methicillin-resistant Staphylococcus epidermidis ATCC 35984 after 24 hrs by crystal violet staining-based assay relative to control; type: functional, RP62A
Pseudomonas aeruginosa [3] = experiment: Inhibition of biofilm formation of Pseudomonas aeruginosa ATCC 27853 after 24 hrs by crystal violet staining-based assay; type: functional
Pseudomonas aeruginosa [4] = experiment: Antibacterial activity against Pseudomonas aeruginosa ATCC 27853 after 18 hrs by broth microdilution method; type: functional; details: ATCC 27853, 18 h
[5] = test system: Staphylococcus epidermidis; experiment: Bactericidal activity against methicillin-resistant Staphylococcus epidermidis ATCC 35984 assessed as decrease in log10CFU/ml at 12.5 to 50 ug/ml incubated for 6 hrs followed by plating measured after 24 hrs relative to control; type: functional; details: for Activity: RP62A
[6] = test system: Staphylococcus epidermidis; experiment: Induction of pre-existing methicillin-resistant Staphylococcus epidermidis ATCC 35984 biofilm detachment after 24 hrs by crystal violet staining-based assay relative to control; type: functional, RP62A; parameters: concentration or dose not given beside the values
[7] = Hemolytic activity in human RBC after 1 hr; type: ADME, cell-based, Erythrocyte; details: red blood cells (RBC)
Pseudomonas aeruginosa [8] = experiment: Bactericidal activity against Pseudomonas aeruginosa ATCC 27853 assessed as decrease in log10CFU/ml at 12.5 to 50 ug/ml incubated for 6 hrs followed by plating measured after 24 hrs relative to control; type: functional
Pseudomonas aeruginosa [9] = experiment: Induction of pre-existing Pseudomonas aeruginosa ATCC 27853 biofilm detachment after 24 hrs by crystal violet staining-based assay relative to control; type: functional; parameters: concentration or dose not given beside the values
Pseudomonas aeruginosa [10] = experiment: Inhibition of biofilm formation of Pseudomonas aeruginosa ATCC 27853 at 6.25 to 12.56 after 24 hrs by crystal violet staining-based assay relative to control; type: functional
[11] = test system: Staphylococcus epidermidis; experiment: Inhibition of biofilm formation of methicillin-resistant Staphylococcus epidermidis ATCC 35984 at 6.25 to 12.56 after 24 hrs by crystal violet staining-based assay relative to control; type: functional, RP62A
Pseudomonas aeruginosa [12] = experiment: microbe, parasite or virus in culture; details: 5761
Description: Antibacterial activity against Pseudomonas aeruginosa 5761 by macrobroth dilution method

[13] = test system: Staphylococcus epidermidis; experiment: microbe, parasite or virus in culture; details: RP62A
Description: Antibacterial activity against oxacillin-susceptible Staphylococcus epidermidis ATCC 35984

Pseudomonas aeruginosa [14] = experiment: microbe, parasite or virus in culture; details: 8545
Description: Antibacterial activity against Pseudomonas aeruginosa 8545 by macrobroth dilution method

Pseudomonas aeruginosa [15] = experiment: microbe, parasite or virus in culture; details: 11683
Description: Antibacterial activity against Pseudomonas aeruginosa 11683 by macrobroth dilution method

[16] = test system: Staphylococcus epidermidis; experiment: microbe, parasite or virus in culture; details: RP62A; remark: listed apart in the source
Description: Antibacterial activity against oxacillin-resistant Staphylococcus epidermidis ATCC 35984

In the case of `CCCCCCCCCCCCCCCC(=O)N(CC(N)=O)C[C@H](CCCCN)NC(=O)CN1C[C@H](Cc2ccccc2)NC(=O)CN(C(=O)CCc2ccccc2)C[C@H](CCCCN)NC(=O)CN(C(=O)CCc2ccccc2)C[C@H](CCCCN)NC(=O)CN(C(=O)CCc2ccccc2)C[C@H](CCCCN)NC(=O)CN(C(=O)CCc2ccccc2)C[C@H](CCCCN)NC(=O)CCC1=O`, the MIC [1] is reported as 13 µM (≈ 24.9 µg/mL), the “inhibition (INH)” value [2] is reported as 40% and the “inhibition (INH)” value (Pseudomonas aeruginosa [3]) is reported as 60%. The MIC (Pseudomonas aeruginosa [4]) was 13 µM (≈ 24.9 µg/mL), the Activity [5] was “Active” and the Activity [6] was 10%. The HC50 at 1 h [7] was 130 µM, the Activity (Pseudomonas aeruginosa [8]) was “Active” and the Activity (Pseudomonas aeruginosa [9]) was 50%.

With `CCCCCCCCCCCCCCCC(=O)N(CC(N)=O)C[C@H](CCCCN)NC(=O)CN1C[C@H](Cc2ccccc2)NC(=O)CN(C(=O)CCCN)C[C@H](Cc2ccccc2)NC(=O)CN(C(=O)CCCN)C[C@H](Cc2ccccc2)NC(=O)CN(C(=O)CCCN)C[C@H](Cc2ccccc2)NC(=O)CCC1=O` the MIC [1] was 0.6 µM (≈ 0.915 µg/mL), the MIC (Pseudomonas aeruginosa [4]) was 3 µM (≈ 4.58 µg/mL) and the deltalog10CFU [5] was 8. The Activity [6] was 30%, the HC50 at 1 h [7] was 65 µM and the deltalog10CFU (Pseudomonas aeruginosa [8]) was 6. For the same molecule, the “inhibition (INH)” value (Pseudomonas aeruginosa [10]) was 80%, the Activity (Pseudomonas aeruginosa [9]) was 50% and the “inhibition (INH)” value [11] was 70%.

With `CCCCCCCCCCCCCCCC(=O)N(CC(N)=O)C[C@H](CCCCN)NC(=O)CN1C[C@H](Cc2ccccc2)NC(=O)CN(C(=O)CCc2ccccc2)C[C@H](CCCCN)NC(=O)CN(C(=O)CCCN)C[C@H](Cc2ccccc2)NC(=O)CN(C(=O)CCCN)C[C@H](Cc2ccccc2)NC(=O)CN(C(=O)CCc2ccccc2)C[C@H](CCCCN)NC(=O)CCC1=O` the MIC [1] was 3 µM (≈ 5.57 µg/mL), the “inhibition (INH)” value [2] was 40% and the “inhibition (INH)” value (Pseudomonas aeruginosa [3]) was 60%. The MIC (Pseudomonas aeruginosa [4]) was 14 µM (≈ 26 µg/mL), the Activity [6] was 10% and the HC50 at 1 h [7] was 82 µM. It also gave an Activity (Pseudomonas aeruginosa [9]) of 50%.

With `O=C(O)c1cn(C2CC2)c2cc(N3CCNCC3)c(F)cc2c1=O` [CIPROFLOXACIN] the inhibition ([2]; RP62A) was “Active”, the inhibition (Pseudomonas aeruginosa [3]) was “Active” and the MIC (Pseudomonas aeruginosa [12]) was 0.09 µg/mL (≈ 0.272 µM). For the same molecule, the MIC [13] was 0.12 µg/mL (≈ 0.362 µM), the MIC (Pseudomonas aeruginosa [14]) was 0.09 µg/mL (≈ 0.272 µM) and the Activity [5] was “Active”. For the same molecule, the Activity [6] was 30%, the Activity (Pseudomonas aeruginosa [8]) was “Active” and the MIC (Pseudomonas aeruginosa [15]) was 0.09 µg/mL (≈ 0.272 µM). The MIC [16] was 0.12 µg/mL (≈ 0.362 µM) and the Activity (Pseudomonas aeruginosa [9]) was 50%.

For `CCCCCCCCCCCCCCCC(=O)N(CC(N)=O)C[C@H](CCCCN)NC(=O)CN1C[C@H](Cc2ccccc2)NC(=O)CN(C(=O)CCc2ccccc2)C[C@H](CCCCN)NC(=O)CN(C(=O)CCc2ccccc2)C[C@H](CCCCN)NC(=O)CN(C(=O)CCc2ccccc2)C[C@H](CCCCN)NC(=O)CCC1=O`, the MIC [1] was 1 µM (≈ 1.61 µg/mL), the “inhibition (INH)” value [2] was 40% and the “inhibition (INH)” value (Pseudomonas aeruginosa [3]) was 60%. For the same molecule, the MIC (Pseudomonas aeruginosa [4]) was 12 µM (≈ 19.3 µg/mL), the Activity [6] was 10% and the HC50 at 1 h [7] was 160 µM. For the same molecule, the Activity (Pseudomonas aeruginosa [9]) was 60%.

In the case of `CCCCCCCCCCCCCCCC(=O)N(CC(N)=O)C[C@H](CCCCN)NC(=O)CN1C[C@H](Cc2ccccc2)NC(=O)CN(C(=O)CCCN)C[C@H](Cc2ccccc2)NC(=O)CN(C(=O)CCCN)C[C@H](Cc2ccccc2)NC(=O)CN(C(=O)CCc2ccccc2)C[C@H](CCCCN)NC(=O)CCC1=O`, the MIC [1] is reported as 0.6 µM (≈ 0.932 µg/mL), the MIC (Pseudomonas aeruginosa [4]) is reported as 6 µM (≈ 9.32 µg/mL) and the HC50 at 1 h [7] is reported as 129 µM.

In the case of `CCCCCCCCCCCCCCCC(=O)N(CC(N)=O)C[C@H](CCCCN)NC(=O)CN1C[C@H](Cc2ccccc2)NC(=O)CN(C(=O)CCc2ccccc2)C[C@H](CCCCN)NC(=O)CN(C(=O)CCCN)C[C@H](Cc2ccccc2)NC(=O)CN(C(=O)CCc2ccccc2)C[C@H](CCCCN)NC(=O)CCC1=O`, the MIC [1] is reported as 3 µM (≈ 4.74 µg/mL), the “inhibition (INH)” value [2] is reported as 40% and the “inhibition (INH)” value (Pseudomonas aeruginosa [3]) is reported as 60%. For the same molecule, the MIC (Pseudomonas aeruginosa [4]) was 6 µM (≈ 9.49 µg/mL), the Activity [5] was “Active” and the Activity [6] was 10%. For the same molecule, the HC50 at 1 h [7] was 114 µM, the Activity (Pseudomonas aeruginosa [8]) was “Active” and the Activity (Pseudomonas aeruginosa [9]) was 50%.
